How the values were obtained:
Experiment in all cases: Methyl transferase scintillation proximity assay
Format in all cases: biochemical
Conditions in all cases: average of two measurements; for inhibition at 10 µM: read-out: MTases Inhibition (%)
DNMT1 = target: T1, DNMT1 (Homo sapiens, UniProt P26358)
T1 construct: purchased DiscoverX BROMOscan (bromodomains); SGC in-house methyltransferase panel
Protocol: (§1) Assays measuring lysine and arginine methyl transferase activity have been described in Scheer et al.. A radioactivity-based scintillation proximity assay was used to monitor incorporation of a tritium-labeled methyl group into the biotinylated substrate of the methyl transferase. A 10-μl reaction containing ^3H-SAM and substrate at concentrations close to the apparent Km values for each enzyme was prepared. The reactions were quenched with 10 μl of 7.5 M guanidine hydrochloride; 180 μl of 20 mM Tris buffer (pH 8.0) were added; and the mixture was transferred to a 96-well FlashPlate and incubated for 1 h. The counts per minute (CPM) was measured on a TopCount plate reader. The CPM in the absence of compound or enzyme was defined as 100% activity and background (0%), respectively, for each dataset.

DNMT3B/3L = target: T2, DNMT3B/3L (Homo sapiens, UniProt Q9UBC3)
T2 construct: purchased DiscoverX BROMOscan (bromodomains); SGC in-house methyltransferase panel
Protocol: as §1

NSD2 = target: T3, NSD2 (Homo sapiens, UniProt O96028)
T3 construct: purchased DiscoverX BROMOscan (bromodomains); SGC in-house methyltransferase panel
T3 sequence (O96028 1-1365): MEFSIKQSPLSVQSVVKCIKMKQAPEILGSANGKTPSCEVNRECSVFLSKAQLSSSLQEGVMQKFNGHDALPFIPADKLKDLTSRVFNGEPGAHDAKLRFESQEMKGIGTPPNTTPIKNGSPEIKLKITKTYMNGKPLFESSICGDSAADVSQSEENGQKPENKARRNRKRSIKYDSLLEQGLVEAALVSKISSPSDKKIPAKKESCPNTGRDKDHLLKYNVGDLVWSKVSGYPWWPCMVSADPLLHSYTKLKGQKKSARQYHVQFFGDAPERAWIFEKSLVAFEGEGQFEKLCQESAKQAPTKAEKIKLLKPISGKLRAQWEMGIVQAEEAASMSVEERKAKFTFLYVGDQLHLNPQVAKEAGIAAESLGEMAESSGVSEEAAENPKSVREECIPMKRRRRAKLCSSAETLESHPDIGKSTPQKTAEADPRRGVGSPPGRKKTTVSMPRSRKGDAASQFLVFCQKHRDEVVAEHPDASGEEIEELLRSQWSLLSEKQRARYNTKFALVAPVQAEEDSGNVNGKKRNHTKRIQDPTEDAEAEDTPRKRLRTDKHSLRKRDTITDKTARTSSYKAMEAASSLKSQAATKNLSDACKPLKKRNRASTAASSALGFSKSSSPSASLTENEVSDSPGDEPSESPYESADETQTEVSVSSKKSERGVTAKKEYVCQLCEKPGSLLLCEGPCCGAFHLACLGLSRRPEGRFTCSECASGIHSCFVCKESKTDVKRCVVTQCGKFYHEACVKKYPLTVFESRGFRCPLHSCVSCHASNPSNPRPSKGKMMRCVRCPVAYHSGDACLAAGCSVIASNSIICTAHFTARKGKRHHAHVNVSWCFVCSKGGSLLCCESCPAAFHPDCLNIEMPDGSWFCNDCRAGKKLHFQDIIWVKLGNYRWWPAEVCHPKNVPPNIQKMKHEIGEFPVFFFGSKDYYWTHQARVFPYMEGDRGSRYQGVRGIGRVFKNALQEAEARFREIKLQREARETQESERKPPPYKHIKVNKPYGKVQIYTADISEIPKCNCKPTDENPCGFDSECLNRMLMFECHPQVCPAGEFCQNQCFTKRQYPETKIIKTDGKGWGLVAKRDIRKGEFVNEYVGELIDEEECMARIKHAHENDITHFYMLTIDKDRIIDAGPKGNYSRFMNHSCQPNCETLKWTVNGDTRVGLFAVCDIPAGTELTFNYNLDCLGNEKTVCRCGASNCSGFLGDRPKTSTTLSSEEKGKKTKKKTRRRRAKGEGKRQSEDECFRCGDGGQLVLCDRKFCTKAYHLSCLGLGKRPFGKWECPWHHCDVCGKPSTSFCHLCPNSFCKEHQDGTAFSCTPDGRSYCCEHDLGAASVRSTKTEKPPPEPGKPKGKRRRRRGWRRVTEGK
Protocol: as §1

PRMT3 = target: T4, PRMT3 (Homo sapiens, UniProt O60678)
T4 construct: purchased DiscoverX BROMOscan (bromodomains); SGC in-house methyltransferase panel
Protocol: as §1

PRMT7 = target: T5, PRMT7 (Homo sapiens, UniProt Q9NVM4)
T5 construct: purchased DiscoverX BROMOscan (bromodomains); SGC in-house methyltransferase panel
T5 sequence (Q9NVM4 1-692): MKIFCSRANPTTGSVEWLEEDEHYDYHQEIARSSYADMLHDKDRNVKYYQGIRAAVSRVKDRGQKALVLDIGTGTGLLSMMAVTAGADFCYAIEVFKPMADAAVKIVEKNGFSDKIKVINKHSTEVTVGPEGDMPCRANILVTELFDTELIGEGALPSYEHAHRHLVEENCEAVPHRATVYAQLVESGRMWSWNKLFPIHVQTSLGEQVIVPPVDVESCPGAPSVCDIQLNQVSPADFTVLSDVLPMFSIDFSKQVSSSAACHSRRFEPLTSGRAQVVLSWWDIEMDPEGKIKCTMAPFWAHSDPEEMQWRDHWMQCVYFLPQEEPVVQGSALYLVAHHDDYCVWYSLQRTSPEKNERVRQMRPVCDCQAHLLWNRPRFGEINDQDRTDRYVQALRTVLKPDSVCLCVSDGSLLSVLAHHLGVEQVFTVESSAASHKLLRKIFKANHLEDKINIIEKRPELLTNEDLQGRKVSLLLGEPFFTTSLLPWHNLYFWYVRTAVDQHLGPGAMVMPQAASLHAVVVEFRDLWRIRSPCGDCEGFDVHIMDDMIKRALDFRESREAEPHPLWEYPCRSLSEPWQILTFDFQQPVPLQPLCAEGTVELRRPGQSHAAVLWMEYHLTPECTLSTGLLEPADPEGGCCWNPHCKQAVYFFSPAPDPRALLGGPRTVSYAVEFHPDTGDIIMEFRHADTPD
Protocol: as §1

T4 sequence (O60678 whole entry): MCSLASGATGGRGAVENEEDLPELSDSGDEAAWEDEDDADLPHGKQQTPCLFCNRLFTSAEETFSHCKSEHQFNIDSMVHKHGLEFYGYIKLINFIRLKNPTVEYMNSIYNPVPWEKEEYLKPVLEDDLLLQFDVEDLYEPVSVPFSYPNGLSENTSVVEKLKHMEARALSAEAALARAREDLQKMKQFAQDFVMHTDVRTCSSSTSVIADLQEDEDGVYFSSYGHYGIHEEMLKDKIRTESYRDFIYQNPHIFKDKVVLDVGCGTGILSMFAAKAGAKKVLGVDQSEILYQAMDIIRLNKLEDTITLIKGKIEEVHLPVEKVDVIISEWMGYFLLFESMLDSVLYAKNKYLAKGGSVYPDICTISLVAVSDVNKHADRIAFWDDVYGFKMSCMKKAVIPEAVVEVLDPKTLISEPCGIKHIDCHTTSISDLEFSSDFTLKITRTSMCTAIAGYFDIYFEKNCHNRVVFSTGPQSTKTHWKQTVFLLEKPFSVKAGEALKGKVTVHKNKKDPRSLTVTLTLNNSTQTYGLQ
T1 sequence (P26358 whole entry): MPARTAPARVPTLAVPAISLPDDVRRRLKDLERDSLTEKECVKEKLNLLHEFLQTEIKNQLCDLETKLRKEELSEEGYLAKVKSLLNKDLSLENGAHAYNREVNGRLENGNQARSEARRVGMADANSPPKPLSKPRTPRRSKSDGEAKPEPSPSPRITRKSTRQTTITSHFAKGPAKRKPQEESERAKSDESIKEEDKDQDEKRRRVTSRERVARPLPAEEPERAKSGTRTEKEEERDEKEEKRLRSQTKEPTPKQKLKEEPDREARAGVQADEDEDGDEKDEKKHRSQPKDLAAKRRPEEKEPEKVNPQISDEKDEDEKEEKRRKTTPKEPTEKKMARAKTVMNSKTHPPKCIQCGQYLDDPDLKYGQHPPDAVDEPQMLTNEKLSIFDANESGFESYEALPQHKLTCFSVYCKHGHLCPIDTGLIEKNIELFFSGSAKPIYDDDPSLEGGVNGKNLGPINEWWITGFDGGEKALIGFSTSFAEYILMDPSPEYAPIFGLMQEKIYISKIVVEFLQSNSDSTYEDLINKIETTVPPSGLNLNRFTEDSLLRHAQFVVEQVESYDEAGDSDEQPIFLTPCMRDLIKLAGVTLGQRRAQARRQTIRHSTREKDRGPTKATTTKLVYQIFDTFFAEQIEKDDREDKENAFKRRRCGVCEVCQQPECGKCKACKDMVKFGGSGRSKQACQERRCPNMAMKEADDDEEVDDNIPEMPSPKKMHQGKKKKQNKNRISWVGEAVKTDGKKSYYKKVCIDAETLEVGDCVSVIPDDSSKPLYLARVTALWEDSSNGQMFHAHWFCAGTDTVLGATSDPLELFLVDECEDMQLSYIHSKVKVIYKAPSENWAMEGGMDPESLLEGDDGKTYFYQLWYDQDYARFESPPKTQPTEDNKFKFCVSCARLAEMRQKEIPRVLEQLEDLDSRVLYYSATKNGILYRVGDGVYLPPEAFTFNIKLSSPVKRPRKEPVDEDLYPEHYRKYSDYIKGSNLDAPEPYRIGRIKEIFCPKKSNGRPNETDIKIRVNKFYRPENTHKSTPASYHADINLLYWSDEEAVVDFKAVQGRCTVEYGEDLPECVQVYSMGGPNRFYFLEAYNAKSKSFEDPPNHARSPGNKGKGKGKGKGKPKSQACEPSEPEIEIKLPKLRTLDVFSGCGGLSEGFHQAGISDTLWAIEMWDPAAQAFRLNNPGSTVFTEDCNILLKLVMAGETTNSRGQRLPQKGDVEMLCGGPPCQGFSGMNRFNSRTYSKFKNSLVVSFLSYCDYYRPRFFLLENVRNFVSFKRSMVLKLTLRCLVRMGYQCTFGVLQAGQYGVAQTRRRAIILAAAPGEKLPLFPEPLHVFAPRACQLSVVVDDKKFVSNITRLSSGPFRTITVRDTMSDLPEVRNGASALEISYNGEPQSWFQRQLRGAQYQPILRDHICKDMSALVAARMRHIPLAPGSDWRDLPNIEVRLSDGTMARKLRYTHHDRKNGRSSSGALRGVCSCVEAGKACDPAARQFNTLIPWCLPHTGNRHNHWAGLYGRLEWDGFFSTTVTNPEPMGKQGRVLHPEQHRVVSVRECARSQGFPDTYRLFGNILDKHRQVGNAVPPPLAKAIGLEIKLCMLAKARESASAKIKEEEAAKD

Row | SMILES | inhibition at 10 µM (DNMT1) [%] | inhibition at 10 µM (DNMT3B/3L) [%] | inhibition at 10 µM (NSD2) [%] | inhibition at 10 µM (PRMT3) [%] | inhibition at 10 µM (PRMT7) [%] | MTases Inhibition (%) (DNMT1; 10µM) | MTases Inhibition (%) (DNMT3B/3L; 10µM) | MTases Inhibition (%) (NSD2; 10µM) | MTases Inhibition (%) (PRMT3; 10µM) | MTases Inhibition (%) (PRMT7; 10µM)
1 | Cc1c(NC(=O)c2cc(C(N)=O)nc3cc(F)ccc23)c(C(F)(F)F)nn1Cc1ccc(C(C)(C)C)cc1 [BAY-588] | 9 | -6 | 2 | 5 | 13 | – | – | – | – | –
2 | COc1cc(Cl)c(C(=O)N[C@@H](CN[C@H]2CC[C@@H](N)CC2)Cc2ccc(C#N)cc2)cc1-c1ccc(CN[C@H](C)c2ccc(C)cc2)o1 [BAY-850] | 4 | 28 | -1 | 3 | 3 | – | – | – | – | –
3 | Cc1c(NC(=O)c2cc(C(N)=O)nc3cc(F)ccc23)c(C(F)(F)F)nn1Cc1ccc(C#N)cc1 [BAY-876] | 4 | 1 | 0 | 1 | 12 | – | – | – | – | –
4 | Cc1nnc2c3ccccc3c(N[C@@H](C)[C@H](c3ccccc3)N(C)C)nn12 [L-Moses] | 3 | -1 | 2 | 0 | 8 | – | – | – | – | –
5 | CN(C)CCCOc1ccc(-c2cc(NCCCn3cccn3)nc(S(C)(=O)=O)n2)cc1 [TP-238] | 3 | 0 | 3 | 5 | 9 | – | – | – | – | –

Now from value to compound:

Row | inhibition at 10 µM (DNMT1) [%] | inhibition at 10 µM (DNMT3B/3L) [%] | inhibition at 10 µM (NSD2) [%] | inhibition at 10 µM (PRMT3) [%] | inhibition at 10 µM (PRMT7) [%] | MTases Inhibition (%) (DNMT1; 10µM) | MTases Inhibition (%) (DNMT3B/3L; 10µM) | MTases Inhibition (%) (NSD2; 10µM) | MTases Inhibition (%) (PRMT3; 10µM) | MTases Inhibition (%) (PRMT7; 10µM) | SMILES
6 | 3 | 1 | 15 | 2 | 15 | – | – | – | – | – | CN1C[C@H](Nc2cnn(C)c(=O)c2Br)C[C@H](c2ccccc2)C1 [GSK4027]
7 | – | – | – | – | – | -8 | 8 | 13 | 1 | 11 | COc1ccccc1C(=O)Nc1cc2c(cc1N1CCNC[C@H]1C)n(C)c(=O)n2C [GSK6853]
8 | -3 | 18 | 24 | 3 | 11 | – | – | – | – | – | CO[C@H]1CNC[C@@H](OCC2CCC(F)(F)CC2)[C@@H]1Nc1ncc(-c2cncc(C)c2)c2cc(C)c(=O)[nH]c12 [GSK8814]
